These compounds were tested on STING pathway (assay: IFN β reporter assay (HTRF, 2′3′-cGAMP-stimulated THP1 cells)). Conditions: Homo sapiens, THP-1, THP1 cells, 5 μM 2′3′-cGAMP, IFN β secretion inhibition; class symbols; read-out: IFN β reporter activity IC50.
Type: cell-based, human
Method: STING pathway deactivation by the compounds described herein was measured using THP1 cells. The THP1 Cells (obtained from ATCC, Cat #TIB-202) were maintained in RPMI-1640 (Gibco, Cat #22400105), 10% FBS, 1% Pen-Strep, 0.05 mM 2-mercaptoethanol. For STING activation, 2′3′-cGAMP (MW 718.38, obtained from Invivogen) was used and prepared in serum-free RPMI-1640 media. Growth media: RPMI-1640 (HEPES, glutamine), 10% FBS, 1% Pen-Strep, 0.05 mM 2-mercaptoethanol. Assay media: RPMI-1640 (HEPES, glutamine), 0.5% FBS. 2′3′-cGAMP: Dissolve 2′3′-cGAMP to 10 mM stock in H2O.
The cells were prepared and seeded at 100K, 90 μL/well with assay media in cell culture plate (Greiner 655180). The compounds were added in 96-well tissue culture plates by Tecan D300e for a final concentration of 0.00137-3 μM.
Lipo2000/3000 and 2′3′-cGAMP stock solutions were diluted respectively in serum-free RPMI-1640 media. The diluted 2′3′-cGAMP and Lipo (V/V=1:1) were mixed and stood for 15 min at room temperature. 10 μL 2,3-cGAMP/Lipofectamine (10×) was transferred to the 96-well assay plate with a final 2′3′-cGAMP concentration of 5 μM. The cell plates were centrifuged at 1000 rpm for 5 min after incubating at 37° C., 5% CO2 overnight.
All reagents (human IFN beta kit, Cisbio 62HIFNBPEG) were warmed to room temperature for at least 30 min before the assay. The instructions of the kit were followed to prepare the detection media. 14 μL of cell supernatants was transferred into their dedicated wells in 384-well plate. Then 2 μL of the activation reagent solution and 4 μL of the mixed antibody solution were added to all wells. The plate was sealed and incubated for 3 h at room temperature.
The HTRF signal was read in Envision (PerkinElmer). IFN β reporter activity was then measured. The calculated ratio is the signal at 665 nm/signal at 615 nm. IC50 values are calculated by using standard methods known in the art.
In the case of `C#Cc1ccc2c(C(=O)Nc3c[nH]c4ccc(F)cc34)n[nH]c2c1` [Example 14], the IC50 is reported as 50 to 200 nM. `O=C(Nc1c[nH]c2cc(F)c(F)cc12)c1cnn2cc(Br)ccc12` [Example 59] showed an IC50 of 200 to 1000 nM. `Cn1cc(C(=O)Nc2c[nH]c3ccc(N4CCNCC4=O)cc23)c2ccc(C(F)(F)F)cc21` [Example 108, 1-methyl-N-[5-(2-oxopiperazin-1-yl)-1H-indol-3-yl]-6-(trifluoromethyl)indole-3-carboxamide] gave an IC50 of over 1000 nM. Work on `CS(=O)(=O)c1ccc2c(C(=O)Nc3c[nH]c4ccc(F)cc34)n[nH]c2c1` [Example 13] yielded an IC50 of over 1000 nM. With `CN(Cc1ccc2[nH]cc(NC(=O)c3cn(C)c4cc(C(F)(F)F)ccc34)c2c1)C(=O)OC(C)(C)C` [Example 39] the IC50 was 50 to 200 nM. In the case of `O=C(Nc1c[nH]c2ccc(F)cc12)c1n[nH]c2cc(CNCC(F)(F)F)ccc12` [Example 93], the IC50 is reported as 50 to 200 nM. `O=C(Nc1c[nH]c2ccc(F)cc12)c1n[nH]c2cc(OC(F)(F)F)ccc12` [Example 11] showed an IC50 of 200 to 1000 nM. `CN(C)Cc1cc2c(cc1F)c(C(=O)Nc1c[nH]c3ccc(F)cc13)cn2C` [Example 94] was tested, and the IC50 was over 1000 nM. `O=C(Nc1c[nH]c2ccc(C(F)(F)F)cc12)c1n[nH]c2cc(C(F)(F)F)ccc12` [Example 10] was tested, and the IC50 was 50 to 200 nM. With `O=C(O)c1ccc2c(C(=O)Nc3c[nH]c4ccc(F)cc34)n[nH]c2c1` [Example 88, 3-[(5-fluoro-1H-indol-3-yl)carbamoyl]-1H-indazole-6-carboxylic acid] the IC50 was over 1000 nM. In the case of `COC(=O)c1ccc2c(C(=O)Nc3c[nH]c4ccc(F)cc34)n[nH]c2c1` [Example 27], the IC50 is reported as over 1000 nM. For `O=C(Nc1c[nH]c2ccc(F)cc12)c1cnn2cc(C(F)(F)F)ccc12` [Example 66], the IC50 was 200 to 1000 nM. In the case of `Cn1cc(C(=O)Nc2c[nH]c3ccc(F)cc23)c2cc(F)c(CNC(C)(C)C)cc21` [Example 96], the IC50 is reported as over 1000 nM. In the case of `O=C(Nc1c[nH]c2cc(F)c(F)cc12)c1n[nH]c2nc(OCC(F)(F)F)ccc12` [Example 70], the IC50 is reported as 50 to 200 nM. `O=C(Nc1c[nH]c2ccccc12)c1n[nH]c2cc(C3CCOCC3)ccc12` [Example 16] showed an IC50 of 50 to 200 nM. Work on `CN(C)Cc1ccc2[nH]cc(NC(=O)c3cn(C)c4cc(C(F)(F)F)ccc34)c2c1` [Example 111, N-(5-((dimethylamino)methyl)-1H-indol-3-yl)-1-methyl-6-(trifluoromethyl)-1H-indole-3-carboxamide] yielded an IC50 of over 1000 nM. With `O=C(Nc1c[nH]c2ccc(F)cc12)c1n[nH]c2cc(N3CCOCC3)ccc12` [Example 60, N-(5-fluoro-1H-indol-3-yl)-6-morpholino-1H-indazole-3-carboxamide] the IC50 was 200 to 1000 nM. Compound `Cn1cc(C(=O)Nc2c[nH]c3ccc(F)cc23)c2cc(F)c(CNCC(F)(F)F)cc21` [Example 91, 5-fluoro-N-(5-fluoro-1H-indol-3-yl)-1-methyl-6-[(2,2,2-trifluoroethylamino)methyl]indole-3-carboxamide] has an IC50 of 50 to 200 nM. `O=C(Nc1c[nH]c2ccccc12)c1n[nH]c2cc(Br)ccc12` [Example 9] was tested, and the IC50 was under 50 nM. With `CN1CCC(c2cc3c(cc2F)c(C(=O)Nc2c[nH]c4ccc(F)cc24)cn3C)CC1` [Example 116, 5-fluoro-N-(5-fluoro-1H-indol-3-yl)-1-methyl-6-(1-methyl-4-piperidyl)indole-3-carboxamide] the IC50 was over 1000 nM. For `Cn1cc(C(=O)Nc2c[nH]c3ccc(F)cc23)c2cc(F)c(CN3CCN(CC(F)(F)F)CC3)cc21` [Example 101], the IC50 was 50 to 200 nM. Compound `Cn1nc(C(=O)Nc2c[nH]c3ccccc23)c2ccc(C#N)cc21` [Example 86, 6-cyano-N-(1H-indol-3-yl)-1-methyl-indazole-3-carboxamide] has an IC50 of over 1000 nM. `CN(Cc1cc2c(cc1F)c(C(=O)Nc1c[nH]c3ccc(F)cc13)cn2C)CC(F)(F)F` [Example 92, 5-fluoro-N-(5-fluoro-1H-indol-3-yl)-1-methyl-6-[[methyl(2,2,2-trifluoroethyl)amino]methyl]indole-3-carboxamide] gave an IC50 of 50 to 200 nM. `C[C@H]1COCCN1c1cc2c(cc1F)c(C(=O)Nc1c[nH]c3ccc(F)cc13)cn2C` [Example 49] was tested, and the IC50 was 200 to 1000 nM. `Cn1cc(C(=O)Nc2c[nH]c3ccc(F)cc23)c2cc(F)c(CN3CCC(F)CC3)cc21` [Example 102] was tested, and the IC50 was 200 to 1000 nM. Compound `O=C(Nc1c[nH]c2ccc(F)cc12)c1cc2ccc(C(F)(F)F)cc2[nH]1` [Example 78] has an IC50 of 50 to 200 nM. Work on `O=C(Nc1c[nH]c2ccc(F)cc12)c1cnn2cc(Br)ccc12` [Example 24] yielded an IC50 of under 50 nM. Work on `Cn1cc(C(=O)Nc2c[nH]c3ccc(F)cc23)c2cc(F)c(CN3CCCCC3)cc21` [Example 99] yielded an IC50 of over 1000 nM. For `Cn1cc(C(=O)Nc2c[nH]c3ccc(C(=O)O)cc23)c2ccc(C(F)(F)F)cc21` [Example 87, 3-[[1-methyl-6-(trifluoromethyl)indole-3-carbonyl]amino]-1H-indole-5-carboxylic acid], the IC50 was over 1000 nM. For `O=C(Nc1c[nH]c2cccc(F)c12)c1n[nH]c2cc(C(F)(F)F)ccc12` [Example 26], the IC50 was 50 to 200 nM. With `O=C(Nc1c[nH]c2ccc(F)cc12)c1n[nH]c2ncc(Br)cc12` [Example 7] the IC50 was 50 to 200 nM. `O=C(Nc1c[nH]c2ccc(F)cc12)c1n[nH]c2nc(OCC(F)(F)F)ccc12` [Example 69] gave an IC50 of 50 to 200 nM. With `Cn1cc(C(=O)Nc2c[nH]c3ccc(F)cc23)c2ccc(C3=CCOCC3)cc21` [Example 72] the IC50 was 50 to 200 nM. With `Cn1cc(C(=O)Nc2c[nH]c3ccc(C#N)cc23)c2cc(Cl)c(C3=CCOCC3)cc21` [Example 55] the IC50 was 50 to 200 nM. `O=C(Nc1c[nH]c2cc(F)c(F)cc12)c1n[nH]c2ncc(Br)cc12` [Example 68] was tested, and the IC50 was 50 to 200 nM. Compound `O=C(Nc1c[nH]c2ccccc12)c1cc2ccc(C(F)(F)F)cc2[nH]1` [Example 56] has an IC50 of 50 to 200 nM. `C[C@@H](NCc1cc2c(cc1F)c(C(=O)Nc1c[nH]c3ccc(F)cc13)cn2C)C(F)(F)F` [Example 105] gave an IC50 of under 50 nM. `O=C(Nc1c[nH]c2ccccc12)c1n[nH]c2cc(C(F)(F)F)ccc12` [Example 31] was tested, and the IC50 was under 50 nM. `Cn1cc(C(=O)Nc2c[nH]c3ccc(C(N)=O)cc23)c2ccc(C(F)(F)F)cc21` [Example 34] showed an IC50 of over 1000 nM. Compound `Cn1cc(C(=O)Nc2c[nH]c3ccc(F)cc23)c2cc(F)c(CNCC(F)F)cc21` [Example 103] has an IC50 of 50 to 200 nM. `O=C(Nc1c[nH]c2ccc(F)cc12)c1n[nH]c2cc(Cl)c(Cl)cc12` [Example 12] gave an IC50 of under 50 nM.

Same assay, conditions: Homo sapiens, THP-1, THP1 cells, 5 μM 2′3′-cGAMP, IFN β secretion inhibition; numeric values (comparators); read-out: IFN β reporter activity IC50
`CN(C(=O)c1n[nH]c2cc(C(F)(F)F)ccc12)c1c[nH]c2ccc(F)cc12` [Comparator E, reference compound] showed an IC50 of 12000 nM. `O=C(Nc1c[nH]c2cc(F)c(F)cc12)c1nc2ccncc2s1` [Comparator B, reference compound] was tested, and the IC50 was over 3000 nM.

Same assay, conditions: Homo sapiens, THP-1, read-out: IFN β reporter activity IC50
`COc1ccc2[nH]cc(NC(=O)c3cn(C)c4cc(C(F)(F)F)ccc34)c2c1` [Example 51] was tested, and the IC50 was 50 to 200 nM. For `O=C(Nc1c[nH]c2ccc(F)cc12)c1cn([C@H]2CCOC2)c2cc(C(F)(F)F)ccc12` [Example 77], the IC50 was 50 to 200 nM. `Cn1nc(C(=O)Nc2c[nH]c3ccccc23)c2cc(Br)ccc21` [Example 3] showed an IC50 of 50 to 200 nM. Compound `CN1CC=C(c2cc3c(cc2Cl)c(C(=O)Nc2c[nH]c4ccc(C#N)cc24)cn3C)CC1` [Example 119, 5-chloro-N-(5-cyano-1H-indol-3-yl)-1-methyl-6-(1-methyl-3,6-dihydro-2H-pyridin-4-yl)indole-3-carboxamide] has an IC50 of over 1000 nM. Compound `Cn1cc(C(=O)Nc2c[nH]c3ccc(F)cc23)c2ccc(Cl)cc21` [Example 32] has an IC50 of under 50 nM. Compound `O=C(Nc1c[nH]c2ccccc12)c1nn(CC2CC2)c2cc(C(F)(F)F)ccc12` [Example 30] has an IC50 of 50 to 200 nM. For `COCCOc1ccc2c(C(=O)Nc3c[nH]c4ccc(F)cc34)cn(C3CC3)c2n1` [Example 46], the IC50 was 50 to 200 nM. Compound `CC(C)n1nc(C(=O)Nc2c[nH]c3ccccc23)c2ccc(C(F)(F)F)cc21` [Example 5] has an IC50 of 200 to 1000 nM. `Cn1cc(C(=O)Nc2c[nH]c3ccc(C#N)cc23)c2ccc(C(F)(F)F)cc21` [Example 36] was tested, and the IC50 was under 50 nM. For `O=C(Nc1c[nH]c2ccc(F)cc12)c1cn(C2CNC2)c2cc(C(F)(F)F)ccc12` [Example 113, 1-(azetidin-3-yl)-N-(5-fluoro-1H-indol-3-yl)-6-(trifluoromethyl)indole-3-carboxamide], the IC50 was over 1000 nM. `Cn1cc(C(=O)Nc2c[nH]c3ccc(F)cc23)c2cc(C(F)(F)F)cnc21` [Example 22] showed an IC50 of 200 to 1000 nM. `CN1CC=C(c2ccc3c(C(=O)Nc4c[nH]c5ccc(F)cc45)cn(C)c3c2)CC1` [Example 117] showed an IC50 of over 1000 nM. Compound `Cc1[nH]c2ccc(F)cc2c1NC(=O)c1cn(C)c2cc(C(F)(F)F)ccc12` [Comparator C, reference compound] has an IC50 of 11000 nM.

— US20240002368A1 (QILU REGOR THERAPEUTICS INC., priority 2020, published 2024)
